Biological target: T1, Signal transducer and activator of transcription 1-alpha/beta (Homo sapiens, UniProt P42224)
T1 sequence (P42224 whole entry): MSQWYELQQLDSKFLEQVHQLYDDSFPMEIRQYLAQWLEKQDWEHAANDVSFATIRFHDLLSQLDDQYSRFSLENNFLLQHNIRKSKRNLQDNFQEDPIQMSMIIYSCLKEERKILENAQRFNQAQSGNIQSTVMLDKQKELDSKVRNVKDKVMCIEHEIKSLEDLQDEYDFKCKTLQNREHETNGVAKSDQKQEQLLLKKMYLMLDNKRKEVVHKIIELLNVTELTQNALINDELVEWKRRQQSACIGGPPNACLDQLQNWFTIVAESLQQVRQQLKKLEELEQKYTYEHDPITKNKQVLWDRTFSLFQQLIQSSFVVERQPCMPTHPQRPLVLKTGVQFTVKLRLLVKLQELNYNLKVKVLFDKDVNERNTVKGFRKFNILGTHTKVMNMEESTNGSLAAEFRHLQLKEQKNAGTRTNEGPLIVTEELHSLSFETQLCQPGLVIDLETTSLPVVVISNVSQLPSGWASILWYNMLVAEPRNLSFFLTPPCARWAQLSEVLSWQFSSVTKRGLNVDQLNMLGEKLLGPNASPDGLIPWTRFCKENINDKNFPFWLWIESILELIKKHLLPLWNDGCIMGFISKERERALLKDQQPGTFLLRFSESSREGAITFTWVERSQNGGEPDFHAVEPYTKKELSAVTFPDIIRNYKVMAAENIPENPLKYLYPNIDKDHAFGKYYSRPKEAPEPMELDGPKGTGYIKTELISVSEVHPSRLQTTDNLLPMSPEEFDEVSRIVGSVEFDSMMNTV
Test: Inhibition of Stat1 (unknown origin) expressed in LPS/INF-gamma-stimulated human MONO-MAC-6 cells assessed as reduction in GAS dependent transcription activity measured after 4 hrs by luciferase reporter gene assay

| SMILES | IC50 [µM] |
| --- | --- |
| C=C[C@H]1CC[C@]23C[C@@H]4[C@H](C)[C@@H](O)[C@H]5O[C@@]45[C@@]2(C)CC(=O)[C@]13C | > 50 |
| CC(C)[C@H]1CC[C@]23C[C@@H]4[C@H](C)C(=O)[C@H]5O[C@]54[C@@]2(C)CC(=O)[C@]13C | 2 |
| CC(C)[C@H]1CC[C@]23C[C@@H]4[C@H](C)C(=O)[C@H]5O[C@]54[C@@]2(C)[C@@H](O)C(=O)[C@]13C | 7 |
| C=C[C@H]1CC[C@]23C[C@@H]4[C@H](C)C(=O)[C@H]5O[C@]54[C@@]2(C)C[C@H](O)[C@]13C | 2 |
